Assay results from US7049340B1, “Neuroprotective and retinoprotective ophthalmologic drugs” (priority 1999, dated 2006).

Test system: healthy subject
Assay: General arterial pressure at doses that improve field of vision
Assay type: in vivo, human
Conditions: healthy subject
Description: Effective doses for producing effects in the ophtalmologic field are desirably lower than doses that would induce general arterial hypotension in a subject with normal pressure. Clearly, the doses that can be used can be higher in subjects with hypertension, although this is not necessary, since the desired effect is that obtained in the ophtalmologic field.

CCOC(=O)[C@H](CCc1ccccc1)N[C@@H](C)C(=O)N1[C@H](C(=O)O)C[C@@H]2CCC[C@@H]21 [ramipril]
effect on arterial pressure of doses that improve field of vision: do not cause arterial hypertension
